According to patent US20150038438A1, “ANTIBACTERIAL COMPOUNDS AND METHODS FOR USE” (PTC THERAPEUTICS, INC., priority 2011, published 2015):

What was measured:
Test in all cases: Antibacterial activity, microbroth dilution method (MIC)
[1] = test system: control Gram-negative E. coli 25922 strain; format: cell-based, Escherichia coli; conditions: Escherichia coli
Outline: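 In a microbroth dilution test, the minimum inhibitory concentration was defined as the lowest compound level preventing growth seen by eye, and was given in μg/mL.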

[2] = test system: super sensitive Gram-negative Escherichia coli (E. coli) BAS849; format: cell-based; conditions: Escherichia coli; super sensitive Gram-negative E. coli BAS849; microbroth dilution; read-out: MIC, E. coli BAS849
Outline: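 Read-out: visual absence of growth. The lowest concentration meeting this gives the MIC, expressed in μg/mL, with microbroth dilution as the method.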

[3] = test system: Gram-positive Staphylococcus aureus (S. aureus) 29213; format: cell-based; conditions: Staphylococcus aureus, Gram-positive S. aureus 29213
Outline: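 Microbroth dilution was used. MIC, in μg/mL, is the lowest drug concentration preventing macroscopically visible growth under the test conditions.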

In the case of CCCCCCNCc1cc2cc3c(cc2n1C)CCCc1c-3[nH]c(=O)c(C(=O)O)c1O.Cl [Cpd 138, 10-((hexylamino)methyl)-4-hydroxy-9-methyl-2-oxo-1,2,5,6,7,9-hexahydropyrido[3′,2′:6,7]cyclohepta[1,2-f]indole-3-carboxylic acid hydrochloride], the MIC [1] is reported as 1 to 3.5 µg/mL, the MIC [2] is reported as < 1 µg/mL and the MIC [3] is reported as 1 to 3.5 µg/mL.

Cl.Cn1c(CN2CCC2)cc2cc3c(cc21)OCCc1c-3[nH]c(=O)c(C(=O)O)c1O [Cpd 91, 10-(azetidin-1-ylmethyl)-4-hydroxy-9-methyl-2-oxo-2,5,6,9-tetrahydro-1H-pyrido[2′,3′:4,5]oxepino[3,2-f]indole-3-carboxylic acid hydrochloride] was tested, and the MIC [1] was < 1 µg/mL, the MIC [2] was < 1 µg/mL and the MIC [3] was 12.5 to 150 µg/mL.

Cl.Cl.Cn1c(CNCCN2CCCC2)cc2cc3c(cc21)CCCc1c-3[nH]c(=O)c(C(=O)O)c1O [Cpd 152, 4-hydroxy-9-methyl-2-oxo-10-(((2-(pyrrolidin-1-yl)ethyl)amino)methyl)-1,2,5,6,7,9-hexahydropyrido[3′,2′:6,7]cyclohepta[1,2-f]indole-3-carboxylic acid dihydrochloride] was tested, and the MIC [1] was 3.5 to 12.5 µg/mL, the MIC [2] was < 1 µg/mL and the MIC [3] was 12.5 to 150 µg/mL.

For Cl.Cn1c(CNC(C)(C)C)cc2cc3c(cc21)NCCc1c-3[nH]c(=O)c(C(=O)O)c1O [Cpd 102, 10-((tert-butylamino)methyl)-4-hydroxy-9-methyl-2-oxo-1,2,5,6,7,9-hexahydropyrido[2′,3′:4,5]azepino[3,2-f]indole-3-carboxylic acid hydrochloride], the MIC [1] was 3.5 to 12.5 µg/mL, the MIC [2] was 1 to 3.5 µg/mL and the MIC [3] was 12.5 to 150 µg/mL.

For CNCc1cc2cc3c(cc2n1C)OCCc1c-3[nH]c(=O)c(C(=O)O)c1O.Cl [Cpd 88, 4-hydroxy-9-methyl-10-((methylamino)methyl)-2-oxo-2,5,6,9-tetrahydro-1H-pyrido[2′,3′:4,5]oxepino[3,2-f]indole-3-carboxylic acid hydrochloride], the MIC [1] was 1 to 3.5 µg/mL, the MIC [2] was < 1 µg/mL and the MIC [3] was 12.5 to 150 µg/mL.

Compound CN(C)C1CCN(c2ccc3c(c2)C(O)CCc2c-3[nH]c(=O)c(C(=O)O)c2O)C1.Cl (stereo not drawn) [Cpd 15, 9-(3-(dimethylamino)pyrrolidin-1-yl)-4,7-dihydroxy-2-oxo-2,5,6,7-tetrahydro-1H-benzo[6,7]cyclohepta[1,2-b]pyridine-3-carboxylic acid hydrochloride] has an MIC [1] of 12.5 to 150 µg/mL, an MIC [2] of 12.5 to 150 µg/mL and an MIC [3] of 12.5 to 150 µg/mL.

For CN(C)C(=O)CNCc1cc2cc3c(cc2n1C)CCCc1c-3[nH]c(=O)c(C(=O)O)c1O.Cl [Cpd 163, 10-(((2-(dimethylamino)-2-oxoethyl)amino)methyl)-4-hydroxy-9-methyl-2-oxo-1,2,5,6,7,9-hexahydropyrido[3′,2′:6,7]cyclohepta[1,2-f]indole-3-carboxylic acid hydrochloride], the MIC [1] was 3.5 to 12.5 µg/mL, the MIC [2] was < 1 µg/mL and the MIC [3] was 12.5 to 150 µg/mL.

With Cl.Cn1c(CN2CC[C@@H](F)C2)cc2cc3c(cc21)CCCc1c-3[nH]c(=O)c(C(=O)O)c1O [Cpd 46, (R)-10-((3-fluoropyrrolidin-1-yl)methyl)-4-hydroxy-9-methyl-2-oxo-1,2,5,6,7,9-hexahydropyrido[3′,2′:6,7]cyclohepta[1,2-f]indole-3-carboxylic acid hydrochloride] the MIC [1] was 1 to 3.5 µg/mL, the MIC [2] was < 1 µg/mL and the MIC [3] was 3.5 to 12.5 µg/mL.

CNCc1cc2c3c(ccc2n1C)-c1[nH]c(=O)c(C(=O)O)c(O)c1CCC3.Cl [Cpd 60, 7-hydroxy-1-methyl-2-((methylamino)methyl)-9-oxo-1,4,5,6,9,10-hexahydropyrido[2′,3′:3,4]cyclohepta[1,2-e]indole-8-carboxylic acid hydrochloride] showed an MIC [1] of 12.5 to 150 µg/mL, an MIC [2] of 3.5 to 12.5 µg/mL and an MIC [3] of 12.5 to 150 µg/mL.

For CN1CCCN(c2ccc3c(c2)CCCc2c-3[nH]c(=O)c(C(=O)O)c2O)CC1.Cl [Cpd 112, 4-hydroxy-9-(4-methyl-1,4-diazepan-1-yl)-2-oxo-2,5,6,7-tetrahydro-1H-benzo[6,7]cyclohepta[1,2-b]pyridine-3-carboxylic acid hydrochloride], the MIC [1] was 3.5 to 12.5 µg/mL, the MIC [2] was 1 to 3.5 µg/mL and the MIC [3] was 12.5 to 150 µg/mL.

Compound CC1Oc2cc(N3CCC(N(C)C)C3)ccc2-c2[nH]c(=O)c(C(=O)O)cc21.Cl (stereo not drawn) [Cpd 75, 8-(3-(dimethylamino)pyrrolidin-1-yl)-5-methyl-2-oxo-2,5-dihydro-1H-chromeno[4,3-b]pyridine-3-carboxylic acid hydrochloride] has an MIC [1] of 12.5 to 150 µg/mL, an MIC [2] of 12.5 to 150 µg/mL and an MIC [3] of 12.5 to 150 µg/mL.

Work on CCNCc1cc2cc3c(cc2n1C)C(C)CCc1c-3[nH]c(=O)c(C(=O)O)c1O.Cl (stereo not drawn) [Cpd 63, 10-((ethylamino)methyl)-4-hydroxy-7,9-dimethyl-2-oxo-1,2,5,6,7,9-hexahydropyrido[3′,2′:6,7]cyclohepta[1,2-f]indole-3-carboxylic acid hydrochloride] yielded an MIC [1] of 3.5 to 12.5 µg/mL, an MIC [2] of 1 to 3.5 µg/mL and an MIC [3] of 12.5 to 150 µg/mL.

Cl.Cn1c(CN2CCCCC2)cc2cc3c(cc21)CCCc1c-3[nH]c(=O)c(C(=O)O)c1O [Cpd 40, 4-hydroxy-9-methyl-2-oxo-10-(piperidin-1-ylmethyl)-1,2,5,6,7,9-hexahydropyrido[3′,2′:6,7]cyclohepta[1,2-f]indole-3-carboxylic acid hydrochloride] was tested, and the MIC [1] was 1 to 3.5 µg/mL, the MIC [2] was < 1 µg/mL and the MIC [3] was 3.5 to 12.5 µg/mL.

For CN1CCC2(CCN(c3ccc4c(c3)CCCc3c-4[nH]c(=O)c(C(=O)O)c3O)C2)C1.Cl (stereo not drawn) [Cpd 123, 4-hydroxy-9-(7-methyl-2,7-diazaspiro[4.4]nonan-2-yl)-2-oxo-2,5,6,7-tetrahydro-1H-benzo[6,7]cyclohepta[1,2-b]pyridine-3-carboxylic acid hydrochloride], the MIC [1] was 3.5 to 12.5 µg/mL, the MIC [2] was < 1 µg/mL and the MIC [3] was 12.5 to 150 µg/mL.
